#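 Values below derive from 48-hour exposures of cells grown in 96-well plates, with endpoints linearly interpolated between the two concentrations bracketing the appropriate inhibition level. GI50 is the concentration that inhibits growth by half. Definition used: TGI = concentration required for complete inhibition of growth.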
# Assays:
# Test in all cases: DTP human tumour cell line panel, 48 h
# OVCAR-4 ovarian = tested on: OVCAR-4 ovarian
# NCI/ADR-RES ovarian = tested on: NCI/ADR-RES ovarian
# SK-MEL-5 melanoma = tested on: SK-MEL-5 melanoma
# MALME-3M melanoma = tested on: MALME-3M melanoma
# K-562 leukemia = tested on: K-562 leukemia
# U251 CNS = tested on: U251 CNS
# SF-268 CNS = tested on: SF-268 CNS
# NCI-H23 lung = tested on: NCI-H23 lung
# SK-MEL-2 melanoma = tested on: SK-MEL-2 melanoma
# CAKI-1 renal = tested on: CAKI-1 renal
# SK-MEL-28 melanoma = tested on: SK-MEL-28 melanoma
# MOLT-4 leukemia = tested on: MOLT-4 leukemia
# HL-60(TB) leukemia = tested on: HL-60(TB) leukemia
# 786-0 renal = tested on: 786-0 renal
# RXF 393 renal = tested on: RXF 393 renal
# SW-620 colon = tested on: SW-620 colon
# SR leukemia = tested on: SR leukemia
# CCRF-CEM leukemia = tested on: CCRF-CEM leukemia
# SK-OV-3 ovarian = tested on: SK-OV-3 ovarian
# NCI-H460 lung = tested on: NCI-H460 lung
# ACHN renal = tested on: ACHN renal
# COLO 205 colon = tested on: COLO 205 colon
# RPMI-8226 leukemia = tested on: RPMI-8226 leukemia
# MCF7 breast = tested on: MCF7 breast
# SNB-75 CNS = tested on: SNB-75 CNS
# HOP-62 NSCLC = tested on: HOP-62 NSCLC
# OVCAR-5 ovarian = tested on: OVCAR-5 ovarian
# M14 melanoma = tested on: M14 melanoma
# IGROV1 ovarian = tested on: IGROV1 ovarian
# A549 NSCLC = tested on: A549 NSCLC
# MDA-MB-435 = tested on: MDA-MB-435
# T-47D breast = tested on: T-47D breast
# UACC-62 melanoma = tested on: UACC-62 melanoma
# SN12C renal = tested on: SN12C renal
# DU-145 prostate = tested on: DU-145 prostate
# MDA-MB-231 breast = tested on: MDA-MB-231 breast
# A498 renal = tested on: A498 renal
# BT-549 breast = tested on: BT-549 breast
# HS 578T breast = tested on: HS 578T breast
# TK-10 renal = tested on: TK-10 renal
# HOP-92 NSCLC = tested on: HOP-92 NSCLC
# SNB-19 CNS = tested on: SNB-19 CNS
# HCC-2998 colon = tested on: HCC-2998 colon
# OVCAR-3 ovarian = tested on: OVCAR-3 ovarian
# NCI-H522 lung = tested on: NCI-H522 lung
# PC-3 prostate = tested on: PC-3 prostate
# UACC-257 melanoma = tested on: UACC-257 melanoma
# SF-539 CNS = tested on: SF-539 CNS
# HT29 colon = tested on: HT29 colon
# NCI-H226 lung = tested on: NCI-H226 lung
# OVCAR-8 ovarian = tested on: OVCAR-8 ovarian
# HCT-15 colon = tested on: HCT-15 colon
# HCT-116 colon = tested on: HCT-116 colon
# SF-295 CNS = tested on: SF-295 CNS
# UO-31 renal = tested on: UO-31 renal
# KM12 colon = tested on: KM12 colon
# EKVX NSCLC = tested on: EKVX NSCLC
# LOX IMVI melanoma = tested on: LOX IMVI melanoma
structure (smiles),measurement,setting,value
CC1=C2C(=O)c3ccccc3C2=C(C)S(=O)(=O)O1,TGI,OVCAR-4 ovarian,> 10 µM
same,TGI,NCI/ADR-RES ovarian,> 10 µM
same,TGI,SK-MEL-5 melanoma,> 10 µM
same,TGI,MALME-3M melanoma,> 10 µM
same,TGI,K-562 leukemia,> 10 µM
same,TGI,U251 CNS,> 10 µM
same,TGI,SF-268 CNS,> 10 µM
same,TGI,NCI-H23 lung,> 10 µM
same,TGI,SK-MEL-2 melanoma,> 10 µM
same,TGI,CAKI-1 renal,> 10 µM
same,TGI,SK-MEL-28 melanoma,> 10 µM
same,TGI,MOLT-4 leukemia,> 10 µM
same,TGI,HL-60(TB) leukemia,> 10 µM
same,TGI,786-0 renal,> 10 µM
same,TGI,RXF 393 renal,> 10 µM
same,TGI,SW-620 colon,> 10 µM
same,TGI,SR leukemia,> 10 µM
same,TGI,CCRF-CEM leukemia,> 10 µM
same,TGI,SK-OV-3 ovarian,> 10 µM
same,TGI,NCI-H460 lung,> 10 µM
same,TGI,ACHN renal,> 10 µM
same,TGI,COLO 205 colon,> 10 µM
same,TGI,RPMI-8226 leukemia,> 10 µM
same,TGI,MCF7 breast,> 10 µM
same,TGI,SNB-75 CNS,> 10 µM
same,TGI,HOP-62 NSCLC,> 10 µM
same,TGI,OVCAR-5 ovarian,> 10 µM
same,TGI,M14 melanoma,> 10 µM
same,TGI,IGROV1 ovarian,> 10 µM
same,TGI,A549 NSCLC,> 10 µM
same,TGI,MDA-MB-435,> 10 µM
same,TGI,T-47D breast,> 10 µM
same,TGI,UACC-62 melanoma,> 10 µM
CN(C)C(=S)S,TGI,OVCAR-4 ovarian,> 100 µM
same,TGI,SN12C renal,> 100 µM
same,TGI,NCI/ADR-RES ovarian,> 100 µM
same,TGI,SK-MEL-5 melanoma,> 100 µM
same,TGI,MALME-3M melanoma,> 90.2 µM
same,TGI,DU-145 prostate,> 100 µM
same,TGI,MDA-MB-231 breast,> 100 µM
same,TGI,K-562 leukemia,> 100 µM
same,TGI,A498 renal,> 100 µM
same,TGI,U251 CNS,> 100 µM
same,TGI,SF-268 CNS,> 100 µM
same,TGI,BT-549 breast,> 100 µM
same,TGI,HS 578T breast,> 100 µM
same,TGI,NCI-H23 lung,> 93.3 µM
same,TGI,TK-10 renal,> 100 µM
same,TGI,HOP-92 NSCLC,> 100 µM
same,TGI,SNB-19 CNS,> 100 µM
same,TGI,HCC-2998 colon,59.4 µM
same,TGI,OVCAR-3 ovarian,28.3 µM
same,TGI,NCI-H522 lung,> 20.4 µM
same,TGI,SK-MEL-2 melanoma,> 93.8 µM
same,TGI,CAKI-1 renal,> 100 µM
same,TGI,SK-MEL-28 melanoma,> 100 µM
same,TGI,MOLT-4 leukemia,> 100 µM
same,TGI,786-0 renal,> 100 µM
same,TGI,RXF 393 renal,> 100 µM
same,TGI,SW-620 colon,> 100 µM
same,TGI,PC-3 prostate,> 100 µM
same,TGI,UACC-257 melanoma,> 100 µM
same,TGI,SF-539 CNS,> 100 µM
same,TGI,HT29 colon,> 100 µM
same,TGI,NCI-H226 lung,> 100 µM
same,TGI,SK-OV-3 ovarian,> 100 µM
same,TGI,NCI-H460 lung,> 100 µM
same,TGI,OVCAR-8 ovarian,> 100 µM
same,TGI,ACHN renal,> 100 µM
same,TGI,HCT-15 colon,> 100 µM
same,TGI,HCT-116 colon,> 59.9 µM
same,TGI,COLO 205 colon,> 100 µM
same,TGI,RPMI-8226 leukemia,> 78.9 µM
same,TGI,MCF7 breast,> 100 µM
same,TGI,SNB-75 CNS,> 100 µM
same,TGI,OVCAR-5 ovarian,> 100 µM
same,TGI,SF-295 CNS,> 100 µM
same,TGI,M14 melanoma,> 100 µM
same,TGI,UO-31 renal,> 100 µM
same,TGI,IGROV1 ovarian,> 100 µM
same,TGI,A549 NSCLC,> 100 µM
same,TGI,KM12 colon,> 100 µM
same,TGI,MDA-MB-435,> 100 µM
same,TGI,T-47D breast,> 100 µM
same,TGI,UACC-62 melanoma,> 100 µM
same,TGI,EKVX NSCLC,> 100 µM
same,TGI,LOX IMVI melanoma,> 100 µM
C=C1CC2(OC1=O)C(=O)N(CCCN1C(=O)C3(CC(=C)C(=O)O3)c3ccccc31)c1ccccc12 (stereo unspecified),GI50,OVCAR-4 ovarian,1.52 µM
same,TGI,OVCAR-4 ovarian,3.14 µM
same,GI50,SN12C renal,2.29 µM
same,TGI,SN12C renal,6.26 µM
same,GI50,NCI/ADR-RES ovarian,2.52 µM
same,TGI,NCI/ADR-RES ovarian,9.44 µM
same,GI50,SK-MEL-5 melanoma,4.96 µM
same,TGI,SK-MEL-5 melanoma,16.7 µM
same,GI50,MALME-3M melanoma,1.7 µM
same,TGI,MALME-3M melanoma,3.21 µM
same,GI50,DU-145 prostate,1.73 µM
same,TGI,DU-145 prostate,3.52 µM
same,GI50,MDA-MB-231 breast,1.65 µM
same,TGI,MDA-MB-231 breast,3.43 µM
same,GI50,K-562 leukemia,0.385 µM
same,TGI,K-562 leukemia,2.07 µM
same,GI50,A498 renal,3.12 µM
same,TGI,A498 renal,17 µM
same,GI50,U251 CNS,5.45 µM
same,TGI,U251 CNS,18.7 µM
same,GI50,SF-268 CNS,3.32 µM
same,TGI,SF-268 CNS,12 µM
same,GI50,BT-549 breast,2.69 µM
same,TGI,BT-549 breast,9.65 µM
same,GI50,HS 578T breast,3.43 µM
same,TGI,HS 578T breast,51.5 µM
same,GI50,NCI-H23 lung,2.34 µM
same,TGI,NCI-H23 lung,6.14 µM
same,GI50,TK-10 renal,1.54 µM
same,TGI,TK-10 renal,2.98 µM
same,GI50,HOP-92 NSCLC,1.33 µM
same,TGI,HOP-92 NSCLC,2.76 µM
same,GI50,SNB-19 CNS,13.3 µM
same,TGI,SNB-19 CNS,26.2 µM
same,GI50,HCC-2998 colon,2.14 µM
same,TGI,HCC-2998 colon,4.53 µM
same,GI50,OVCAR-3 ovarian,0.571 µM
same,TGI,OVCAR-3 ovarian,1.83 µM
same,GI50,NCI-H522 lung,0.444 µM
same,TGI,NCI-H522 lung,1.87 µM
same,GI50,SK-MEL-2 melanoma,10.4 µM
same,TGI,SK-MEL-2 melanoma,32.3 µM
same,GI50,CAKI-1 renal,1.17 µM
same,TGI,CAKI-1 renal,2.39 µM
same,GI50,SK-MEL-28 melanoma,1.92 µM
same,TGI,SK-MEL-28 melanoma,3.61 µM
same,GI50,MOLT-4 leukemia,0.419 µM
same,TGI,MOLT-4 leukemia,1.93 µM
same,GI50,HL-60(TB) leukemia,0.831 µM
same,TGI,HL-60(TB) leukemia,2.85 µM
same,GI50,786-0 renal,1.68 µM
same,TGI,786-0 renal,3.9 µM
same,GI50,RXF 393 renal,1.32 µM
same,TGI,RXF 393 renal,2.83 µM
same,GI50,SW-620 colon,0.594 µM
same,TGI,SW-620 colon,2.08 µM
same,GI50,SR leukemia,0.33 µM
same,TGI,SR leukemia,1.35 µM
same,GI50,PC-3 prostate,2.79 µM
same,TGI,PC-3 prostate,10.3 µM
same,GI50,UACC-257 melanoma,1.66 µM
same,TGI,UACC-257 melanoma,3.95 µM
same,GI50,CCRF-CEM leukemia,0.416 µM
same,TGI,CCRF-CEM leukemia,2.5 µM
same,GI50,SF-539 CNS,1.76 µM
same,TGI,SF-539 CNS,3.43 µM
same,GI50,HT29 colon,1.85 µM
same,TGI,HT29 colon,4.91 µM
same,GI50,NCI-H226 lung,2.01 µM
same,TGI,NCI-H226 lung,6.64 µM
same,GI50,SK-OV-3 ovarian,11.4 µM
same,TGI,SK-OV-3 ovarian,23.7 µM
same,GI50,NCI-H460 lung,3.94 µM
same,TGI,NCI-H460 lung,18.5 µM
same,GI50,OVCAR-8 ovarian,1.35 µM
same,TGI,OVCAR-8 ovarian,5.49 µM
same,GI50,ACHN renal,1.15 µM
same,TGI,ACHN renal,2.36 µM
same,GI50,HCT-15 colon,0.956 µM
same,TGI,HCT-15 colon,2.55 µM
same,GI50,HCT-116 colon,1.84 µM
same,TGI,HCT-116 colon,3.75 µM
same,GI50,COLO 205 colon,0.52 µM
same,TGI,COLO 205 colon,2.03 µM
same,GI50,RPMI-8226 leukemia,0.579 µM
same,TGI,RPMI-8226 leukemia,2.78 µM
same,GI50,MCF7 breast,1.4 µM
same,TGI,MCF7 breast,4.45 µM
same,GI50,SNB-75 CNS,3.44 µM
same,TGI,SNB-75 CNS,26.8 µM
same,GI50,HOP-62 NSCLC,7.34 µM
same,TGI,HOP-62 NSCLC,21.8 µM
same,GI50,OVCAR-5 ovarian,2.07 µM
same,TGI,OVCAR-5 ovarian,4.55 µM
same,GI50,SF-295 CNS,13.2 µM
same,TGI,SF-295 CNS,26 µM
same,GI50,M14 melanoma,1.68 µM
same,TGI,M14 melanoma,3.67 µM
same,GI50,UO-31 renal,1.53 µM
same,TGI,UO-31 renal,2.97 µM
same,GI50,IGROV1 ovarian,1.32 µM
same,TGI,IGROV1 ovarian,2.68 µM
same,GI50,A549 NSCLC,10.4 µM
same,TGI,A549 NSCLC,24 µM
same,GI50,KM12 colon,2.72 µM
same,TGI,KM12 colon,12 µM
same,GI50,MDA-MB-435,1.84 µM
same,TGI,MDA-MB-435,4.2 µM
same,GI50,UACC-62 melanoma,1.54 µM
same,TGI,UACC-62 melanoma,3.11 µM
same,GI50,EKVX NSCLC,13.6 µM
same,TGI,EKVX NSCLC,26.7 µM
same,GI50,LOX IMVI melanoma,0.805 µM
same,TGI,LOX IMVI melanoma,2.1 µM

# — PubChem BioAssay (NCI)
